Data reported in patent US11198869B2, “Angelman syndrome antisense treatment” (The Texas A&M University System, priority 2017, dated 2021).

System: paternal Ube3aYFP protein
Test: Paternal Ube3aYFP protein levels by immunofluorescent imaging in mouse primary hippocampal neurons
Format: cell-based
Conditions: treated 7 DIV, imaged 10 DIV; ASOs 1, 5, 15 μM, Topotecan 300 nM; compared to ASO-C and Veh
Description: Based on these findings, mouse-specific ASOs were designed to target a specific region in the Ube3a-AS transcript (Table 6 and FIG. 2A). To test whether ASOs targeting this region reactivate expression of the paternal Ube3a allele, primary hippocampal neuronal cultures were generated from the Ube3aYFP reporter mouse model (Ube3a+/YFP; FIG. 2B) and treated at 7 days in vitro (DIV) with a control ASO [ASO-C (10 uM, n=3)], three ASOs targeting Ube3a-AS [ASO-1.1, ASO-1.2, ASO-3.1 (1 μM, 5 μM, and 15 μM, n=3)], and ASO-B (1 μM, 5 μM, and 15 μM, n=3)]. As a positive control, neurons were also treated with Topotecan [Topo (300 nM, n=3)] and a negative vehicle control [Veh (1%, n=3); FIG. 2 C]. Three days post-treatment (10 DIV), immunofluorescent imaging was used to quantify paternal Ube3aYFP protein levels in individual cells.
Primary cultures of hippocampal neurons were generated from P0-P1 pups (Ube3a^m+/p+ and Ube3a^m+/pYFP) by crossing Ube3a^m+/pYFP males with wild-type C57BL/6J females. Genotypes were determined using methods described previously. Briefly, hippocampal neurons were cultured in Neurobasal A medium (Invitrogen, San Diego, Calif.) supplemented with B27 (Invitrogen) and penicillin/streptomycin (Invitrogen) on 96-well optical bottom plates coated with poly-D-Lysine (152028, Thermo Fisher Scientific) and laminin (23017-01, Thermo Fisher Scientific). […]

C^O*C^O*A^O*C^O*A^O*t*t*t*c*c*t*c*t*c*a*U^O*G^O*G^O*A^O*A^O [ASO-1.1]
paternal Ube3aYFP protein levels: level similar to that achieved by the optimal concentration of Topotecan
